Measured values: patent publication US20170304388A1, “NEW INDICATION OF CARDIOVASCULAR DRUGS FOR PREPARATION OF CANCER INHIBITION PHARMACEUTICAL COMPOSITION” (LAUNX BIOMEDICAL CO., LTD., priority 2014, published 2017)

Key:
Format in all cases: cell-based
[1] = test system: MKN-45 (Gastric Adenocarcinoma); experiment: Cell viability analysis (WST-1), MKN-45; conditions: Table 4, repeated experiments, drug 10 μM
[2] = test system: AsPC-1; experiment: Cell viability analysis (WST-1), AsPC-1; conditions: Table 4, repeated experiments, drug 10 μM
Summary of the method: (§1)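 Seeded at 3000 cells per well, then exposed to drug at 10 μM for 72 h. Viability measured by WST-1 reagent (1:10 in medium) for 30–90 min at 37° C, read as OD450, expressed as survival rate.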

[3] = test system: PC3 (Prostate Adenocarcinoma); experiment: Cell viability analysis (WST-1), PC3; conditions: Table 4, repeated experiments, drug 10 μM
[4] = test system: BxPC-3; experiment: Cell viability analysis (WST-1), BxPC-3; conditions: Table 4, repeated experiments, drug 10 μM
Summary of the method: as §1

[5] = test system: cancer cell lines; experiment: Growth inhibitory effects on the panel of cancer cell lines; conditions: drug 10 μM, 72 hours, WST-1
[6] = test system: MDA-MB231; experiment: Cell viability analysis (WST-1), MDA-MB231; conditions: Table 4, repeated experiments, drug 10 μM
[7] = test system: C-33A; experiment: Cell viability analysis (WST-1), C-33A; conditions: Table 4, repeated experiments, drug 10 μM
Summary of the method: as §1

[8] = test system: HCT116 (Colorectal Carcinoma); experiment: Cell viability analysis (WST-1), HCT116; conditions: Table 4, repeated experiments, drug 10 μM
[9] = test system: LoVo (Colorectal Adenocarcinoma); experiment: Cell viability analysis (WST-1), LoVo; conditions: Table 4, repeated experiments, drug 10 μM
[10] = test system: 786-O; experiment: Cell viability analysis (WST-1), 786-O; conditions: Table 4, repeated experiments, drug 10 μM
Summary of the method: as §1

[11] = test system: AGS (Gastric Adenocarcinoma); experiment: Cell viability analysis (WST-1), AGS; conditions: Table 4, repeated experiments, drug 10 μM
[12] = test system: NIH-OVCAR-3; experiment: Cell viability analysis (WST-1), NIH-OVCAR-3; conditions: Table 4, repeated experiments, drug 10 μM
Summary of the method: as §1

[13] = test system: H1650 (Lung Adenocarcinoma); experiment: Cell viability analysis (WST-1), H1650; conditions: Table 4, repeated experiments, drug 10 μM
[14] = test system: T24; experiment: Cell viability analysis (WST-1), T24; conditions: Table 4, repeated experiments, drug 10 μM
Summary of the method: as §1

[15] = test system: A549 (Lung Adenocarcinoma); experiment: Cell viability analysis (WST-1), A549; conditions: Table 4, repeated experiments, drug 10 μM
[16] = test system: U2OS; experiment: Cell viability analysis (WST-1), U2OS; conditions: Table 4, repeated experiments, drug 10 μM
Summary of the method: as §1

[17] = test system: Hep3B; experiment: Cell viability analysis (WST-1), Hep3B; conditions: Table 4, repeated experiments, drug 10 μM
Summary of the method: as §1

[18] = test system: HeLa (Cervix Adenocarcinoma); experiment: Cell viability analysis (WST-1), HeLa; conditions: Table 4, repeated experiments, drug 10 μM
[19] = test system: HepG2 (Hepatocellular Carcinoma); experiment: Cell viability analysis (WST-1), HepG2; conditions: Table 4, repeated experiments, drug 10 μM
[20] = test system: MCF7 (Mammary Gland, Adenocarcinoma); experiment: Cell viability analysis (WST-1), MCF7; conditions: Table 4, repeated experiments, drug 10 μM
[21] = test system: TOV-21G; experiment: Cell viability analysis (WST-1), TOV-21G; conditions: Table 4, repeated experiments, drug 10 μM
Summary of the method: as §1

[22] = test system: SAS; experiment: Cell viability analysis (WST-1), SAS; conditions: Table 4, repeated experiments, drug 10 μM
Summary of the method: as §1

[23] = test system: TSGH-8301 (Urinary Bladder Carcinoma); experiment: Cell viability analysis (WST-1), TSGH-8301; conditions: Table 4, repeated experiments, drug 10 μM
[24] = test system: A375 (Amelanotic Melanoma); experiment: Cell viability analysis (WST-1), A375; conditions: Table 4, repeated experiments, drug 10 μM
[25] = test system: BCC; experiment: Cell viability analysis (WST-1), BCC; conditions: Table 4, repeated experiments, drug 10 μM

For `O=C([O-])C[C@H](O)C[C@H](O)/C=C/c1c(C2CC2)nc2ccccc2c1-c1ccc(F)cc1.O=C([O-])C[C@H](O)C[C@H](O)/C=C/c1c(C2CC2)nc2ccccc2c1-c1ccc(F)cc1.[Ca+2]` [Pitavastatin calcium (Livalo), Pitavastatin calcium], the “survival rate (viability) of cancer cells, MKN-45” value ([1]; 72 hours, WST-1) was 61.3, the “survival rate (viability) of cancer cells, AsPC-1” value ([2]; 72 hours) was 51.36 and the “survival rate (viability) of cancer cells, PC-3” value ([3]; 72 hours, WST-1) was 27.54. For the same molecule, the “survival rate (viability) of cancer cells, BxPC-3” value ([4]; 72 hours) was 59.78, the “inhibition effect on different cancer cell lines (in words)” value [5] was “significant inhibition effect” and the “survival rate (viability) of cancer cells, MDA-MB231” value ([6]; 72 hours) was 39.0358. For the same molecule, the “survival rate (viability) of cancer cells, C-33A” value ([7]; 72 hours) was 74.75, the “survival rate (viability) of cancer cells, HCT116” value ([8]; 72 hours, WST-1) was 35.07 and the “survival rate (viability) of cancer cells, LoVo” value ([9]; 72 hours, WST-1) was 65.15. The “survival rate (viability) of cancer cells, 786-O” value ([10]; 72 hours) was 16.46, the “survival rate (viability) of cancer cells, AGS” value ([11]; 72 hours, WST-1) was 19.17 and the “survival rate (viability) of cancer cells, NIH-OVCAR-3” value ([12]; 72 hours) was 61.41. The “survival rate (viability) of cancer cells, H1650” value ([13]; 72 hours, WST-1) was 49.9822, the “survival rate (viability) of cancer cells, T24” value ([14]; 72 hours) was 52.63 and the “survival rate (viability) of cancer cells, A549” value ([15]; 72 hours, WST-1) was 89.44. The “survival rate (viability) of cancer cells, U2OS” value ([16]; 72 hours) was 43.44, the “survival rate (viability) of cancer cells, Hep3B” value ([17]; 72 hours) was 96.34 and the “survival rate (viability) of cancer cells, HeLa” value ([18]; 72 hours, WST-1) was 36.91. For the same molecule, the “survival rate (viability) of cancer cells, HepG2” value ([19]; 72 hours, WST-1) was 98.06, the “survival rate (viability) of cancer cells, MCF-7” value ([20]; 72 hours, WST-1) was 83.57 and the “survival rate (viability) of cancer cells, TOV-21G” value ([21]; 72 hours) was 21.79. The “survival rate (viability) of cancer cells, SAS” value ([22]; 72 hours) was 38.0374, the “survival rate (viability) of cancer cells, TSGH-8301” value ([23]; 72 hours, WST-1) was 48.92 and the “survival rate (viability) of cancer cells, A375” value ([24]; 72 hours, WST-1) was 22.09. For the same molecule, the “survival rate (viability) of cancer cells, BCC” value ([25]; 72 hours) was 26.77.

With `COc1ccc(-c2nc3ccc(C4=NNC(=O)CC4C)cc3[nH]2)cc1` (centres unmarked) [Pimobendan (Vetmedin), Pimobendan] the viability at 10 µM ([1]; Homo sapiens, MKN-45, 72 h, WST-1, read-out: survival rate (viability) of cancer cells, MKN-45) was 65.2%, the viability at 10 µM ([2]; Homo sapiens, ASPC1, 72 h, read-out: survival rate (viability) of cancer cells, AsPC-1) was 69.3% and the viability at 10 µM ([3]; 72 h, WST-1, read-out: survival rate (viability) of cancer cells, PC-3) was 69.5%. The viability at 10 µM ([4]; Homo sapiens, BXPC-3, 72 h, read-out: survival rate (viability) of cancer cells, BxPC-3) was 51.9%, the “inhibition effect on different cancer cell lines (in words)” value [5] was “significant inhibition effect” and the viability at 10 µM ([6]; Homo sapiens, MDA-MB-231, 72 h, read-out: survival rate (viability) of cancer cells, MDA-MB231) was 75%. For the same molecule, the viability at 10 µM ([7]; Homo sapiens, C-33-A, 72 h, read-out: survival rate (viability) of cancer cells, C-33A) was 62.8%, the viability at 10 µM ([8]; Homo sapiens, HCT-116, 72 h, WST-1, read-out: survival rate (viability) of cancer cells, HCT116) was 53.6% and the viability at 10 µM ([9]; Homo sapiens, LoVo, 72 h, WST-1, read-out: survival rate (viability) of cancer cells, LoVo) was 66.7%. It also gave a viability at 10 µM ([10]; Homo sapiens, 786-0, 72 h, read-out: survival rate (viability) of cancer cells, 786-O) of 39.6%, a viability at 10 µM ([11]; 72 h, WST-1, read-out: survival rate (viability) of cancer cells, AGS) of 60.8% and a viability at 10 µM ([12]; Homo sapiens, OVCAR-3, 72 h, read-out: survival rate (viability) of cancer cells, NIH-OVCAR-3) of 74.7%. For the same molecule, the viability at 10 µM ([13]; Homo sapiens, NCI-H1650, 72 h, WST-1, read-out: survival rate (viability) of cancer cells, H1650) was 77.8%, the viability at 10 µM ([14]; Homo sapiens, T-24, 72 h, read-out: survival rate (viability) of cancer cells, T24) was 74.2% and the viability at 10 µM ([15]; Homo sapiens, A549, 72 h, WST-1, read-out: survival rate (viability) of cancer cells, A549) was 58.3%. For the same molecule, the viability at 10 µM ([16]; Homo sapiens, U2OS, 72 h, read-out: survival rate (viability) of cancer cells, U2OS) was 56.6%, the viability at 10 µM ([17]; Homo sapiens, Hep3B, 72 h, read-out: survival rate (viability) of cancer cells, Hep3B) was 94.8% and the viability at 10 µM ([18]; Homo sapiens, HeLa, 72 h, WST-1, read-out: survival rate (viability) of cancer cells, HeLa) was 34%. For the same molecule, the viability at 10 µM ([19]; Homo sapiens, HepG2, 72 h, WST-1, read-out: survival rate (viability) of cancer cells, HepG2) was 87.2%, the viability at 10 µM ([20]; Homo sapiens, MCF7, 72 h, WST-1, read-out: survival rate (viability) of cancer cells, MCF-7) was 53.9% and the viability at 10 µM ([21]; Homo sapiens, TOV21G, 72 h, read-out: survival rate (viability) of cancer cells, TOV-21G) was 70.7%. It also gave a viability at 10 µM ([22]; 72 h, read-out: survival rate (viability) of cancer cells, SAS) of 51.1%, a viability at 10 µM ([23]; 72 h, WST-1, read-out: survival rate (viability) of cancer cells, TSGH-8301) of 59.4% and a viability at 10 µM ([24]; Homo sapiens, A-375, 72 h, WST-1, read-out: survival rate (viability) of cancer cells, A375) of 44.4%. It also gave a viability at 10 µM ([25]; BCC, 72 h, read-out: survival rate (viability) of cancer cells, BCC) of 49.6%.
